# Experimental data reported in ChEMBL document CHEMBL4014275, “Discovery of benzofuran-3(2H)-one derivatives as novel DRAK2 inhibitors that protect islet β-cells from apoptosis” (Eur J Med Chem, 2017).
# pIC50: −log10 of the molar value.
# Experiments:
# [1] = molecular target: T1, Serine/threonine-protein kinase 17B (Homo sapiens, UniProt O94768); assay: Inhibition of recombinant GST-tagged DRAK2 (unknown origin) autophosphorylation after 2 hrs by ADP-glo assay
# T1 sequence (O94768 whole entry): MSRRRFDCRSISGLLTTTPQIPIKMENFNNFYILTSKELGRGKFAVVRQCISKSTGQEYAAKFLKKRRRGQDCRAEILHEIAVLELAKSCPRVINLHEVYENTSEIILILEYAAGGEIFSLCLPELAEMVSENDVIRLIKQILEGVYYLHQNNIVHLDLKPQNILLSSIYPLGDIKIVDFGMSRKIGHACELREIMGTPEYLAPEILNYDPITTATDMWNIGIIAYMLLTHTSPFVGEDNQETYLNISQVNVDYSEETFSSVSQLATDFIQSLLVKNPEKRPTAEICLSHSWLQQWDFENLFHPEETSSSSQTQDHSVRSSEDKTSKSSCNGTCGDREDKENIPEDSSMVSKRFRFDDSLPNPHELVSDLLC
# [2] = molecular target: T2, Serine/threonine-protein kinase 17A (Homo sapiens, UniProt Q9UEE5); assay: Inhibition of human DRAK1
# T2 sequence (Q9UEE5 whole entry): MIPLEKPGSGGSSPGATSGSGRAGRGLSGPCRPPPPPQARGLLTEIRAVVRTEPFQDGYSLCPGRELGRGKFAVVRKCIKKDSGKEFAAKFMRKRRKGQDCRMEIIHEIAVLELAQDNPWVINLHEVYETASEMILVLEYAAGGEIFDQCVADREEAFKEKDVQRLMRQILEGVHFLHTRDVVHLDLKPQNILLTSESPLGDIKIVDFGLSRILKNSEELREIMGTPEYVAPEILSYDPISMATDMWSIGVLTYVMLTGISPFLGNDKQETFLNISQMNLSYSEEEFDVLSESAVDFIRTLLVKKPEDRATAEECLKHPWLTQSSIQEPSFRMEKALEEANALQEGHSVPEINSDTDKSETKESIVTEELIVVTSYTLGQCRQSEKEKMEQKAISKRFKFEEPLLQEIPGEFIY
# [3] = molecular target: Death-associated protein kinase 1 (Homo sapiens, UniProt P53355); assay: Inhibition of human DAPK1
# [4] = molecular target: Death-associated protein kinase 2 (Homo sapiens, UniProt Q9UIK4); assay: Inhibition of human DAPK2
# Death-associated protein kinase 2, sequence (Q9UIK4 whole entry): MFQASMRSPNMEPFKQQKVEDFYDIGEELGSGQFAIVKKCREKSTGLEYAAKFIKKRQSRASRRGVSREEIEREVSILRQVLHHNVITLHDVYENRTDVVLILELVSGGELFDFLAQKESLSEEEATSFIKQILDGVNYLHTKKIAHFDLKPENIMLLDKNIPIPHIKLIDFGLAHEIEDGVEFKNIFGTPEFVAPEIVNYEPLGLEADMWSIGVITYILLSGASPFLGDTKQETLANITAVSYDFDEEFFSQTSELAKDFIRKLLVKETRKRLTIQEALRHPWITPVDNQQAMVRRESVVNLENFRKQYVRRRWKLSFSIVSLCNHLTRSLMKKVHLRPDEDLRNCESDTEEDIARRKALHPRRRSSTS
# [5] = molecular target: Death-associated protein kinase 3 (Homo sapiens, UniProt O43293); assay: Inhibition of human DAPK3
# Death-associated protein kinase 3, sequence (O43293 whole entry): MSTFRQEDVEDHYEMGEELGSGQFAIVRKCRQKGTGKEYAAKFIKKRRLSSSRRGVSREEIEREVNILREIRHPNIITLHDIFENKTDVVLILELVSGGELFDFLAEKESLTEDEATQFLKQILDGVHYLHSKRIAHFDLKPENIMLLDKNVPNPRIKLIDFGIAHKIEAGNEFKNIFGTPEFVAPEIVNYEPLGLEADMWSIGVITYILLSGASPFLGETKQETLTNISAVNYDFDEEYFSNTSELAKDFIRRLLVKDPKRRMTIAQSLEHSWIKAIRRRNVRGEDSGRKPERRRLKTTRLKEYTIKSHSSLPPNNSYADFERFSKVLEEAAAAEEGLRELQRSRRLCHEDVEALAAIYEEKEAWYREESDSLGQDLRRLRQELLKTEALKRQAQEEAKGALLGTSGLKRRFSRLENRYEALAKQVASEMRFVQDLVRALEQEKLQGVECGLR
# [6] = molecular target: Tyrosine-protein kinase Blk (Homo sapiens, UniProt P51451); assay: Inhibition of human BLK
# Tyrosine-protein kinase Blk, sequence (P51451 whole entry): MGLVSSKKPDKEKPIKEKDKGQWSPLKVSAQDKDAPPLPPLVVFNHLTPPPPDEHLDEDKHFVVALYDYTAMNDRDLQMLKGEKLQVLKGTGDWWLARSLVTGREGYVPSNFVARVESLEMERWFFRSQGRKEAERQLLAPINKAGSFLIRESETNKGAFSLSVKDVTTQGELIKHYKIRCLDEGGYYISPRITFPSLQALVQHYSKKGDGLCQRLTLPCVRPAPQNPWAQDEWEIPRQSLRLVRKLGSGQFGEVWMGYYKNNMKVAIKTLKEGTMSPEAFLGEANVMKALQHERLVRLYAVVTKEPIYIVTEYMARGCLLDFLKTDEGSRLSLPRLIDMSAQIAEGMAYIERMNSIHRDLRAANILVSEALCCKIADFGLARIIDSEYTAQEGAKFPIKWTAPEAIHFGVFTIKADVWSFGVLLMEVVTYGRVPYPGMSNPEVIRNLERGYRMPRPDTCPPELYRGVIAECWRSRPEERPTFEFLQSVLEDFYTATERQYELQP
# [7] = molecular target: T3, Tyrosine-protein kinase ITK/TSK (Homo sapiens, UniProt Q08881); assay: Inhibition of human ITK
# T3 sequence (Q08881 whole entry): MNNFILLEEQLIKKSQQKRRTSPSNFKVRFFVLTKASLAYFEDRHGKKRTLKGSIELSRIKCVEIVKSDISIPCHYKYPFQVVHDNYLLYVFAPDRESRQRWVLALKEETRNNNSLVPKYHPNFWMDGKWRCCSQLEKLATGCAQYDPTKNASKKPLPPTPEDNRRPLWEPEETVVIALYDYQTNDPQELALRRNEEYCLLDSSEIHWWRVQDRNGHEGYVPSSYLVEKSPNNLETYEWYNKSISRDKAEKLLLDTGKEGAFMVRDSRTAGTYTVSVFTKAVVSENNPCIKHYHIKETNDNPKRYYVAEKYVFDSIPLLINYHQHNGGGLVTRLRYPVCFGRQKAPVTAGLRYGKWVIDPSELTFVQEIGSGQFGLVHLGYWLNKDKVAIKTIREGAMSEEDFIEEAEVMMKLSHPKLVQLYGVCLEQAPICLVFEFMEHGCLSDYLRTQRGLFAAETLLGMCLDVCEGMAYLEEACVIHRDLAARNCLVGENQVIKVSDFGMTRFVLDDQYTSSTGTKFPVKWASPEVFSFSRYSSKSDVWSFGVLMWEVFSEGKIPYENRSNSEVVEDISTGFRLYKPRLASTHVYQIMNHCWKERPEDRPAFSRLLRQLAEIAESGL
# [8] = molecular target: Angiopoietin-1 receptor (Homo sapiens, UniProt Q02763); assay: Inhibition of human TEK
# Angiopoietin-1 receptor, sequence (Q02763 whole entry): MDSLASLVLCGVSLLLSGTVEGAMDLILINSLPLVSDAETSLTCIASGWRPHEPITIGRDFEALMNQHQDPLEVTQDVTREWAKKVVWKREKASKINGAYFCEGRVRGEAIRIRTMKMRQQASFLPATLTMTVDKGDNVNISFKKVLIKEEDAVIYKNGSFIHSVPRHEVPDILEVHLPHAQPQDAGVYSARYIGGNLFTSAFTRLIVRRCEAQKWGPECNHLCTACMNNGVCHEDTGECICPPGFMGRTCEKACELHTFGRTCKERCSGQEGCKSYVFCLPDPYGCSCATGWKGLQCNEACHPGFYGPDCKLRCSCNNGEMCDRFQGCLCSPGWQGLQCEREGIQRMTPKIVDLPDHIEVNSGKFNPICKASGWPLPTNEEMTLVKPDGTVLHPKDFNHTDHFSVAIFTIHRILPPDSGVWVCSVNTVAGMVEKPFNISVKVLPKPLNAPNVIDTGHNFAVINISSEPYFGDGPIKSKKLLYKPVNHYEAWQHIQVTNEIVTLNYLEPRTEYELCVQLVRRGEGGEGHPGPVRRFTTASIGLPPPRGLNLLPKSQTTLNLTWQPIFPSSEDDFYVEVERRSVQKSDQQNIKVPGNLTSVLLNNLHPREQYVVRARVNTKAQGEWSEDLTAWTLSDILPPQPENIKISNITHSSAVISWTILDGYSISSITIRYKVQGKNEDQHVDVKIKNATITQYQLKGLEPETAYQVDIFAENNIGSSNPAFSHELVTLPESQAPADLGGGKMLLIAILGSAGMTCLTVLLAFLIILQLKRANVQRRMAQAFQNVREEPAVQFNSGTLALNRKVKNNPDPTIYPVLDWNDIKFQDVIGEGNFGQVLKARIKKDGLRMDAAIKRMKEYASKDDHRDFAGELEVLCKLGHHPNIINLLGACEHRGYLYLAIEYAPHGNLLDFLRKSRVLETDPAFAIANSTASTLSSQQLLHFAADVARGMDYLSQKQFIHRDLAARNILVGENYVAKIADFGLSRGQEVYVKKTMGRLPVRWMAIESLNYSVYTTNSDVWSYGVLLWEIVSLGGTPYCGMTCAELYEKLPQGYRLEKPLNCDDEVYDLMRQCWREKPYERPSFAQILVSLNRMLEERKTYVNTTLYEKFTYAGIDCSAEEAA
# [9] = molecular target: Tyrosine-protein kinase JAK2 (Homo sapiens, UniProt O60674); assay: Inhibition of human JAK2
# [10] = molecular target: T4, Tyrosine-protein kinase JAK3 (Homo sapiens, UniProt P52333); assay: Inhibition of human JAK3
# T4 sequence (P52333 whole entry): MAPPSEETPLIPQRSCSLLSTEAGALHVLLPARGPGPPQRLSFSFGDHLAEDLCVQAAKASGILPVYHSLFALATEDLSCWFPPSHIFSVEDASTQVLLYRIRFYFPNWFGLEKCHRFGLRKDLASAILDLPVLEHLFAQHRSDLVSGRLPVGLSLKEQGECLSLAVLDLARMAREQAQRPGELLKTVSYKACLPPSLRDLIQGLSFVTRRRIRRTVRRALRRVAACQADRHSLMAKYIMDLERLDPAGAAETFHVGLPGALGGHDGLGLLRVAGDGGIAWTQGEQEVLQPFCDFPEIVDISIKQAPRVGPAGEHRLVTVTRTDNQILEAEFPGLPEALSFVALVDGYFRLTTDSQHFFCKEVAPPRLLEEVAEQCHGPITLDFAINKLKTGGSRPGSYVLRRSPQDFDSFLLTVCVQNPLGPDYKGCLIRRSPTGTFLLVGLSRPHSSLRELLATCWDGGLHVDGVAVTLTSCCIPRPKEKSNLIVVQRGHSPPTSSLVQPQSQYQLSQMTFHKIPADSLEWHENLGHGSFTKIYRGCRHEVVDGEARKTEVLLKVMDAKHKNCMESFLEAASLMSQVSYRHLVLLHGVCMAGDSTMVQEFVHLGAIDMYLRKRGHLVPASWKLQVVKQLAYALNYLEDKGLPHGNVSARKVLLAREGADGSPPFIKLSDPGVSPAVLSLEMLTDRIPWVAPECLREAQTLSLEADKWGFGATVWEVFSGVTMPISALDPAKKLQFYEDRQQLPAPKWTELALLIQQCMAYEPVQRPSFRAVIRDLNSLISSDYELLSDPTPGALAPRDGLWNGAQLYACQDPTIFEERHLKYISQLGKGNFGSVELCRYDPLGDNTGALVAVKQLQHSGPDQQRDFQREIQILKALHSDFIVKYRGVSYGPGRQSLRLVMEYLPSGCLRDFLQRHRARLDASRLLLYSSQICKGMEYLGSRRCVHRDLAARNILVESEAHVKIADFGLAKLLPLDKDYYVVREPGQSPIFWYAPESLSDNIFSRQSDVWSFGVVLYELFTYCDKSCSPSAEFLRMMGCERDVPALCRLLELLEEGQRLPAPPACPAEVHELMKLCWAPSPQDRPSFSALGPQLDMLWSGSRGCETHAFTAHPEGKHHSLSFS
# [11] = molecular target: Tyrosine-protein kinase SYK (Homo sapiens, UniProt P43405); assay: Inhibition of human SYK
# [12] = molecular target: T5, Aurora kinase A (Homo sapiens, UniProt O14965); assay: Inhibition of human AURORA-A
# T5 sequence (O14965 whole entry): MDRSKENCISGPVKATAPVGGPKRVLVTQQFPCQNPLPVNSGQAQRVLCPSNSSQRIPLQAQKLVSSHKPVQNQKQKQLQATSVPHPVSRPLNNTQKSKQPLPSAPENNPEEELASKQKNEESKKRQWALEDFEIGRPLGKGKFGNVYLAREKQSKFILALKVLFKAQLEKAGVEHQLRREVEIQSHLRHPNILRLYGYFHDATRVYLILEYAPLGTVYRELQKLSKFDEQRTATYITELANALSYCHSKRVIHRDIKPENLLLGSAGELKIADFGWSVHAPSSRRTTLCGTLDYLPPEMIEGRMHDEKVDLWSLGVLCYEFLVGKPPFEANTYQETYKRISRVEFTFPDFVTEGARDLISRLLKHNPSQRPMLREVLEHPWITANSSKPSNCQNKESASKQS
# [13] = molecular target: Tyrosine-protein kinase BTK (Homo sapiens, UniProt Q06187); assay: Inhibition of human BTK
# Tyrosine-protein kinase BTK, sequence (Q06187 whole entry): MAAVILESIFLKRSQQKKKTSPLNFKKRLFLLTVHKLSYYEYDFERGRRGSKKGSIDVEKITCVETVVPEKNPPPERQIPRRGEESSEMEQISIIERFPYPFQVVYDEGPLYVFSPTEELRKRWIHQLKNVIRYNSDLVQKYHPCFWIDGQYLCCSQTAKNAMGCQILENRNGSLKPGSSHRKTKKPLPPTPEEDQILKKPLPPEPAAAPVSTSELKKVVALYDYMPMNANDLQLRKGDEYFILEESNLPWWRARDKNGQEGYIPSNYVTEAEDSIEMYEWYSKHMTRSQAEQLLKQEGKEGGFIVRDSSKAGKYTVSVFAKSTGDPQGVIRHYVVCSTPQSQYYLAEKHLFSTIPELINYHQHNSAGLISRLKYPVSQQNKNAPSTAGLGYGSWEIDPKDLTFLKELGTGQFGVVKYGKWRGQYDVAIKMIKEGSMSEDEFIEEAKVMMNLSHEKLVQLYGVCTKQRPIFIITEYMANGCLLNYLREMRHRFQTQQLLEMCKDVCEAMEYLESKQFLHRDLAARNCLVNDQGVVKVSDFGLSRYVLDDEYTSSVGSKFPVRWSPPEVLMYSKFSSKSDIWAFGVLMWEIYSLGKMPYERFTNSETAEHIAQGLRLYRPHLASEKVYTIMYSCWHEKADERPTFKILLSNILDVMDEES
# [14] = molecular target: Cyclin-dependent kinase 4 (Homo sapiens, UniProt P11802); assay: Inhibition of human CDK4
# Cyclin-dependent kinase 4, sequence (P11802 whole entry): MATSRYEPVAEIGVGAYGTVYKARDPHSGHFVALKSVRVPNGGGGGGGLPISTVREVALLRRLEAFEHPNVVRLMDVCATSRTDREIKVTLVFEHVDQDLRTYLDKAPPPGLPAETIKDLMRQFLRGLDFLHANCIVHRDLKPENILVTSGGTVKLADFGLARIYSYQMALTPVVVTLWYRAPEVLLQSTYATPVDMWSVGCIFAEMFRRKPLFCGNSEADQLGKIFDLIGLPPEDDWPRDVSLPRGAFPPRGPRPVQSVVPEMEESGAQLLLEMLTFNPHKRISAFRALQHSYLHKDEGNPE
# [15] = molecular target: Cyclin-dependent kinase 5 (Homo sapiens, UniProt Q00535); assay: Inhibition of human CDK5
# Cyclin-dependent kinase 5, sequence (Q00535 whole entry): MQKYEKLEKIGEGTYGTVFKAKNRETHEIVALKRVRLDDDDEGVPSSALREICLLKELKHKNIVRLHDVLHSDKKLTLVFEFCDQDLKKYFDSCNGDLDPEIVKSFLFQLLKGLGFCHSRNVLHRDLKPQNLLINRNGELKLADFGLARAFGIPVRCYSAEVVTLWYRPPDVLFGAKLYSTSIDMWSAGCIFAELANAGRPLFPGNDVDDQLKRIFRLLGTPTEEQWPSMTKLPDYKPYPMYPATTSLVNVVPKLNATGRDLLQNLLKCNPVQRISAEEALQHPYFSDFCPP
# [16] = molecular target: Cyclin-dependent kinase 6 (Homo sapiens, UniProt Q00534); assay: Inhibition of human CDK6
# Cyclin-dependent kinase 6, sequence (Q00534 whole entry): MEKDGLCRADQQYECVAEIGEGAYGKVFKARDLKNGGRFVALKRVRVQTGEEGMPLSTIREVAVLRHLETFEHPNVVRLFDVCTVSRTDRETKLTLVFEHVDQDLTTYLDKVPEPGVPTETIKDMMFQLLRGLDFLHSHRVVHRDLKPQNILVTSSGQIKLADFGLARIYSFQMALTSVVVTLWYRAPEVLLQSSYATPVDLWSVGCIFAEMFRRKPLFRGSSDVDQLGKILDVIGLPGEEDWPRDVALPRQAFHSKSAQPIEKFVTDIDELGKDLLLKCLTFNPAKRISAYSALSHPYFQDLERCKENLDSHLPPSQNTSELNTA
# [17] = molecular target: Cyclin-dependent kinase 9 (Homo sapiens, UniProt P50750); assay: Inhibition of human CDK9
# Cyclin-dependent kinase 9, sequence (P50750 whole entry): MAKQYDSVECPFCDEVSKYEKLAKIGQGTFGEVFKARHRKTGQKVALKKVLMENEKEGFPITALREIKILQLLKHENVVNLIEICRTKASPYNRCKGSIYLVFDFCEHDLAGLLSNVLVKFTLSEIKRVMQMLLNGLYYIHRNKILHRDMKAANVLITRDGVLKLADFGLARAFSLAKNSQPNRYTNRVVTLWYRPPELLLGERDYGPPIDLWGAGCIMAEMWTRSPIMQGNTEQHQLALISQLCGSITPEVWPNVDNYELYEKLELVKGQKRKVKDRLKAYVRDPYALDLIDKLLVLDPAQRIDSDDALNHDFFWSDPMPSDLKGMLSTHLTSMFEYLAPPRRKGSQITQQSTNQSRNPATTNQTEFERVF
# [18] = molecular target: Glycogen synthase kinase-3 beta (Homo sapiens, UniProt P49841); assay: Inhibition of human GSK3beta
# Glycogen synthase kinase-3 beta, sequence (P49841 whole entry): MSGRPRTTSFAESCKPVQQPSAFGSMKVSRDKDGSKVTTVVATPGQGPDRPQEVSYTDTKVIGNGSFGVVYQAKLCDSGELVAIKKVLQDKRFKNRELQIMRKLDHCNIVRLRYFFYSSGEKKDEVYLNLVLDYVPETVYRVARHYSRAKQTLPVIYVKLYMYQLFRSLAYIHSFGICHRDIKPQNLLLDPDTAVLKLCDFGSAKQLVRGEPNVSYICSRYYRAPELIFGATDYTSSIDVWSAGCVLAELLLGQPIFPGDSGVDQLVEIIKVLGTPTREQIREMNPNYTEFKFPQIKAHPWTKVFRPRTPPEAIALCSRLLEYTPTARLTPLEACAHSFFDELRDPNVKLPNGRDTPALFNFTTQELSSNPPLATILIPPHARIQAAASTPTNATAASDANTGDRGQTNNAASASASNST
pIC50 [1],SMILES,further results
4.61,O=C1/C(=C/c2ccccc2)Oc2ccccc21 [(Z)-AURONE],–
4.92,COc1ccc(/C=C2\Oc3ccccc3C2=O)cc1O,–
5.99,O=C1/C(=C/c2ccc(O)c(O)c2)Oc2cc(O)ccc21 [SULFURETIN],pIC50 [2]: 5.23; pIC50 [3]: 4.88; pIC50 [4]: 5.51; pIC50 [5]: 5.63; pIC50 [6]: 5.54; pIC50 [7]: 5.69; pIC50 [8]: 6.02; pIC50 [9]: 5.03; pIC50 [10]: 5.37; pIC50 [11]: 5.33; pIC50 [12]: 6.07; pIC50 [13]: 5.22; pIC50 [14]: 5.55; pIC50 [15]: 5.82; pIC50 [16]: 5.61; pIC50 [17]: 5.67; pIC50 [18]: 5.71
4.54,CCCCOc1cc(/C=C2\Oc3ccccc3C2=O)ccc1O,–
4.40,O=C1/C(=C/c2cccnc2)Oc2ccccc21,–
5.18,COc1cc(/C=C2\Oc3ccccc3C2=O)cc(OC)c1O,–
4.56,O=C1c2ccccc2OC1Cc1ccc(O)c(O)c1 (stereo not given),–
6.60,COc1ccc2c(c1)C(=O)/C(=C/c1ccc(O)c(O)c1)O2,pIC50 [2]: 5.24; pIC50 [4]: 5.20; pIC50 [5]: 4.92; pIC50 [6]: 5.52; pIC50 [7]: 5.66; pIC50 [8]: 6.29; pIC50 [12]: 5.98; pIC50 [13]: 5.30; pIC50 [15]: 5.05; pIC50 [18]: 5.28
4.39,CCOc1cc(/C=C2\Oc3cc(Cl)ccc3C2=O)ccc1O,–
5.44,CCCCOc1ccc2c(c1)C(=O)/C(=C/c1ccc(O)c(OCC)c1)O2,–
5.14,CCOc1cc(/C=C2\Oc3cccc(OC)c3C2=O)ccc1O,–
5.61,CCOc1cc(/C=C2\Oc3cc(OC)ccc3C2=O)ccc1O,–
5.49,CCOc1cc(/C=C2\Oc3ccccc3C2=O)ccc1O,–
4.86,CCOc1cc(/C=C2\Oc3ccc(Cl)cc3C2=O)ccc1O,–
4.64,O=C(c1ccc(O)c(O)c1)c1cc2ccccc2o1,–
6.16,CCOc1cc(/C=C2\Oc3ccc(OC(C)=O)cc3C2=O)ccc1O,–
5.27,CCCOc1cc(/C=C2\Oc3ccccc3C2=O)ccc1O,–
6.02,CCOc1cc(/C=C2\Oc3ccc(C)cc3C2=O)ccc1O,–

pIC50 [1],SMILES,further results
5.88,COc1ccc(-c2cnc3scc(NC(=O)C4CCCCC4)c3c2)cc1OC,pIC50 [4]: 4.26; pIC50 [5]: 4.40
4.88,O=C1/C(=C/c2ccc(O)c(O)c2)Cc2ccccc21,–
4.22,CCOc1cc(/C=C2\Oc3cc(F)ccc3C2=O)ccc1O,–
4.28,O=C1/C(=C/c2ccc(O)cc2)Oc2ccccc21,–
4.67,"COc1ccc(/C=C2\Oc3ccccc3C2=O)cc1OC [3',4'-DIMETHOXY-AURONE]",–
4.37,CCOc1cc(/C=C2\Oc3ccc(I)cc3C2=O)ccc1O,–
5.15,CCOc1cc(/C=C2\Oc3ccc(N)cc3C2=O)ccc1O,–
5.50 to 5.51,O=C1/C(=C/c2ccc(O)c(O)c2)Oc2ccccc21,–
6.00,O=C1/C(=C/c2ccc(O)c(O)c2)Oc2ccc(O)cc21,–
4.19,O=C1/C(=C/c2ccco2)Oc2ccccc21,–
5.89,CCOc1cc(/C=C2\Oc3c(OC)cccc3C2=O)ccc1O,–
4.39,O=C1/C(=C/c2ccc(F)cc2)Oc2ccccc21,–
5.51,COc1cc(/C=C2\Oc3ccccc3C2=O)ccc1O,–
4.76,CC(C)Oc1cc(/C=C2\Oc3ccccc3C2=O)ccc1O,–
5.98,CCOc1cc(/C=C2\Oc3ccc(F)cc3C2=O)ccc1O,–
6.39,CCOc1ccc2c(c1)C(=O)/C(=C/c1ccc(O)c(OCC)c1)O2,–
4.96,O=C1/C(=C/c2ccc(CO)cc2)Oc2ccccc21,–
4.55,CCOc1cc(/C=C2\Oc3ccc(Br)cc3C2=O)ccc1O,–
